# Source: ChEMBL document CHEMBL1140322, “New pyrrolo[2,1-f]purine-2,4-dione and imidazo[2,1-f]purine-2,4-dione derivatives as potent and selective human A3 adenosine receptor antagonists” (J Med Chem, 2005)
# What was measured:
# [1] = target: Adenosine receptors; A2a & A3 (Homo sapiens) (UniProt P0DMS8+P29274); test: Relative binding affinity for human adenosine A2a and A3 receptors; assay type: protein assay
# Adenosine receptor A2b = target: T1, Adenosine receptor A2b (Homo sapiens, UniProt P29275); test: Inhibition of 100 nM NECA-stimulated cAMP production in CHO cells expressing human adenosine A2B receptor; assay type: functional, cell-based
# T1 sequence (P29275 whole entry): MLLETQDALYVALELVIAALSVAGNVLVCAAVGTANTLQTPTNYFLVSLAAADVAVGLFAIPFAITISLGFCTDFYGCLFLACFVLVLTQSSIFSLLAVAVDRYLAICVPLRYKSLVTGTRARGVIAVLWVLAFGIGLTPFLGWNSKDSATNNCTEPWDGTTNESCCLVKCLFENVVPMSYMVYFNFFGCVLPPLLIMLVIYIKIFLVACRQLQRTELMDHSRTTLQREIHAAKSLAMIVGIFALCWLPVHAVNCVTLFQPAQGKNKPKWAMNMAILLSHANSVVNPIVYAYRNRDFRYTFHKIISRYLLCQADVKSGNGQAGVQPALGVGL
# [2] = target: Adenosine receptors; A1 & A3 (Homo sapiens) (UniProt P30542+P0DMS8); test: Relative binding affinity for human adenosine A1 and A3 receptors; assay type: protein assay
# Sequence of Adenosine receptors; A1 & A3 (Homo sapiens) (P0DMS8 whole entry, looked up, one chain of several): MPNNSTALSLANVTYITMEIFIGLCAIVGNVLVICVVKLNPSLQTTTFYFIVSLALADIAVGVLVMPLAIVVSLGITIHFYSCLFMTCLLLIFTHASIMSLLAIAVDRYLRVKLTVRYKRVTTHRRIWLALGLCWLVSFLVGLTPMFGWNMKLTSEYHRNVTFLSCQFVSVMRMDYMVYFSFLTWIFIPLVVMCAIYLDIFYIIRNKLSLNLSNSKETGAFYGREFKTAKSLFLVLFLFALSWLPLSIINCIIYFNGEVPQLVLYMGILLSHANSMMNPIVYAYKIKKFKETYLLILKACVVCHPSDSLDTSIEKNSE
# Adenosine receptor A2a = Adenosine receptor A2a (Homo sapiens, UniProt P29274); test: Inhibition of [3H]-ZM 241385 binding to human adenosine A2a receptor expressed in CHO cells; assay type: cell-based
# Sequence of Adenosine receptor A2a (P29274 whole entry): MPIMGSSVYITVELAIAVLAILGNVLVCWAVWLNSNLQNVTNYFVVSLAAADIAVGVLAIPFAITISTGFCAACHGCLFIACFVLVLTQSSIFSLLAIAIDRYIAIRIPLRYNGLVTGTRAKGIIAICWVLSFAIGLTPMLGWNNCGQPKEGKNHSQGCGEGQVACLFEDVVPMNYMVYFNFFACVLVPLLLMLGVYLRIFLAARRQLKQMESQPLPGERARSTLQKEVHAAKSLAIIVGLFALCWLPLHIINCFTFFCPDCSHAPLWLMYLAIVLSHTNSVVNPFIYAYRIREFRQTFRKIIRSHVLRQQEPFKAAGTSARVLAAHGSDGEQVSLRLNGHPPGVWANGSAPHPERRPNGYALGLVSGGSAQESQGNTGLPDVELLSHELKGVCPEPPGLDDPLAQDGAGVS
# [3] = target: Adenosine receptors; A2b & A3 (Homo sapiens) (UniProt P29275+P0DMS8); test: Relative binding affinity for human adenosine A2b and A3 receptors; assay type: protein assay
# Adenosine receptor A1 = target: T2, Adenosine receptor A1 (Homo sapiens, UniProt P30542); test: Inhibition of [3H]DPCPX binding to human adenosine A1 receptor expressed in CHO cells; assay type: cell-based
# T2 sequence (P30542 whole entry): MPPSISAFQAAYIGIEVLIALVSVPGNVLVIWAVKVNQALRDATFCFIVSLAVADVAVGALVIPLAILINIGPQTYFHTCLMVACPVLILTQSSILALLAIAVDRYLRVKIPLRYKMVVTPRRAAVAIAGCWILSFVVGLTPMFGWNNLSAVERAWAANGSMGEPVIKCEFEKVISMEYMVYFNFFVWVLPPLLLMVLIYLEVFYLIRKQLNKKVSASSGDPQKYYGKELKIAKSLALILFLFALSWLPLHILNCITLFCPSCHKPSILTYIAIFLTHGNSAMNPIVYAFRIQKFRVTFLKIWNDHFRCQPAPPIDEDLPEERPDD
Selectivity [1],IC50 (Adenosine receptor A2b) [µM],Selectivity [2],Ki (Adenosine receptor A2a) [µM],Selectivity [3],Ki (Adenosine receptor A1) [µM],Structure (SMILES)
> 67,> 1,> 67,> 1,> 67,> 1,CCCn1c(=O)c2c(nc3[nH]c(CC)cn32)n(Cc2ccccc2)c1=O
> 10,> 1,> 10,> 1,> 10,> 1,CCCn1c(=O)c2c(nc3[nH]c(C(C)(C)C)cn32)n(Cc2ccccc2)c1=O
> 13,> 1,> 13,> 1,> 13,> 1,CCCn1c(=O)c2c(nc3n2C(C)C(C)=C3)n(Cc2ccccc2)c1=O (stereo not given)
,,,> 1,,> 1,CCCn1c(=O)c2c(nc3[nH]c(-c4ccc(-c5ccccc5)cc4)cn32)n(Cc2ccccc2)c1=O
> 44,> 1,15,> 1,> 44,,CCCn1c(=O)c2c(nc3[nH]c(C4CC4)cn32)n(Cc2ccccc2)c1=O
> 18,,> 18,> 1,,> 1,CCCn1c(=O)c2c(nc3[nH]c(-c4ccc(OC)cc4)cn32)n(Cc2ccccc2)c1=O

# Further lines, the molecule ahead of its results:
Structure (SMILES),Selectivity [1],IC50 (Adenosine receptor A2b) [µM],Selectivity [2],Ki (Adenosine receptor A2a) [µM],Selectivity [3],Ki (Adenosine receptor A1) [µM]
CCCn1c(=O)c2c(nc3n2CC(c2ccccc2)=C3)n(Cc2ccccc2)c1=O,> 5,,> 5,> 1,,> 1
CCCn1c(=O)c2c(nc3n2CC(C)=C3)n(Cc2ccccc2)c1=O,> 125,,> 125,> 1,50,> 1
CCCn1c(=O)c2c(nc3[nH]c(CC)c(C)n32)n(Cc2ccccc2)c1=O,> 17,> 1,> 17,> 1,> 17,> 1
CCCn1c(=O)c2c(nc3[nH]c(C(C)C)cn32)n(Cc2ccccc2)c1=O,> 32,> 1,> 15,> 1,> 32,
CCCn1c(=O)c2c(nc3[nH]c(C)c(C)n32)n(Cc2ccccc2)c1=O,> 28,> 1,> 28,> 1,> 28,> 1
CCCn1c(=O)c2c(nc3n2CC(CC)=C3)n(Cc2ccccc2)c1=O,,> 1,,,,
CCCn1c(=O)c2c(nc3[nH]c(-c4ccccc4)cn32)n(Cc2ccccc2)c1=O,> 9,,> 9,> 1,,> 1
CCCn1c(=O)c2c(nc3[nH]c(-c4ccc(F)cc4)cn32)n(Cc2ccccc2)c1=O,> 45,,> 45,> 1,,> 1
CCCn1c(=O)c2c(nc3[nH]c(C)cn32)n(Cc2ccccc2)c1=O,,> 1,,,,
CCCn1c(=O)c2c(nc3[nH]c(C4CCCCC4)cn32)n(Cc2ccccc2)c1=O,> 2,> 1,> 2,> 1,,> 1
